# “And” between values parts separate entries of the source, which are not always exact repeats. Equal values may be shown once.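 Briefly, cells in 96-well plates were exposed to five compound concentrations for 48 h, and endpoints were estimated by linear interpolation. The concentration for 50% growth inhibition is given as GI50. TGI is the concentration that stops growth completely.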
# What was measured:
# Assay in all cases: inhibition of tumour cell growth, NCI panel, 48 h
# [1] = test system: NCI-H226 lung
# [2] = test system: BT-549 breast
# [3] = test system: HT29 colon
# [4] = test system: HOP-92 NSCLC
# [5] = test system: KM12 colon
# [6] = test system: SNB-19 CNS
# [7] = test system: NCI-H23 lung
# [8] = test system: PC-3 prostate
# [9] = test system: OVCAR-8 ovarian
# [10] = test system: M14 melanoma
# [11] = test system: MDA-MB-435
# [12] = test system: MOLT-4 leukemia
# [13] = test system: HCT-116 colon
# [14] = test system: HCC-2998 colon
# [15] = test system: A549 NSCLC
# [16] = test system: OVCAR-5 ovarian
# [17] = test system: CCRF-CEM leukemia
# [18] = test system: RXF 393 renal
# [19] = test system: COLO 205 colon
# [20] = test system: IGROV1 ovarian
# [21] = test system: OVCAR-3 ovarian
# [22] = test system: HL-60(TB) leukemia
# [23] = test system: MCF7 breast
# [24] = test system: SK-MEL-28 melanoma
# [25] = test system: 786-0 renal
# [26] = test system: RPMI-8226 leukemia
# [27] = test system: SK-MEL-5 melanoma
# [28] = test system: U251 CNS
# [29] = test system: NCI/ADR-RES ovarian
# [30] = test system: T-47D breast
# [31] = test system: HCT-15 colon
# [32] = test system: LOX IMVI melanoma
# [33] = test system: SN12C renal
# [34] = test system: NCI-H522 lung
# [35] = test system: HS 578T breast
# [36] = test system: UACC-257 melanoma
# [37] = test system: TK-10 renal
# [38] = test system: K-562 leukemia
# [39] = test system: OVCAR-4 ovarian
# [40] = test system: MDA-MB-231 breast
# [41] = test system: SW-620 colon
# [42] = test system: SF-539 CNS
# [43] = test system: SF-268 CNS
# [44] = test system: EKVX NSCLC
# [45] = test system: NCI-H460 lung
# [46] = test system: SK-MEL-2 melanoma
# [47] = test system: MDA-N
# [48] = test system: DU-145 prostate
# [49] = test system: MALME-3M melanoma
# [50] = test system: CAKI-1 renal
# [51] = test system: ACHN renal
# [52] = test system: SNB-75 CNS
# [53] = test system: SK-OV-3 ovarian
# [54] = test system: SF-295 CNS
# [55] = test system: UACC-62 melanoma
# [56] = test system: HOP-62 NSCLC
# [57] = test system: A498 renal
# [58] = test system: SR leukemia
# [59] = test system: UO-31 renal
smiles,measurement,setting,value
CN1C=c2c3c(ccc2=C2C=CC4C=C5OCOC5=CC4=C21)OCO3 (stereo not given),GI50,[1],1.82 µM and 7.18 µM
same,TGI,[1],3.36 µM and 14.7 µM
same,TGI,[2],3.38 µM and 6.26 µM
same,TGI,[3],3.02 µM and 5.1 µM
same,GI50,[4],1.62 µM and 5.71 µM
same,TGI,[4],3 µM and 14.1 µM
same,GI50,[5],1.27 µM and 4.06 µM
same,TGI,[5],2.8 µM and 13.2 µM
same,GI50,[6],1.65 µM and 12.2 µM
same,TGI,[6],3.07 µM and 25 µM
same,TGI,[7],2.95 µM and 10.3 µM
same,TGI,[8],2.85 µM and 9.48 µM
same,GI50,[9],0.423 µM and 1.52 µM
same,TGI,[9],1.64 µM and 4.19 µM
same,TGI,[10],2.55 µM and 3.78 µM
same,TGI,[11],2.45 µM and 3.61 µM
same,GI50,[12],0.253 µM and 1.74 µM
same,TGI,[13],2.39 µM and 3.19 µM
same,GI50,[14],1.56 µM and 6.55 µM
same,TGI,[14],3.24 µM and 16.2 µM
same,GI50,[15],1.77 µM and 6.26 µM
same,TGI,[15],3.95 µM and 18.8 µM
same,GI50,[16],1.65 µM and 6.19 µM
same,TGI,[16],3.04 µM and 18.5 µM
same,GI50,[17],0.21 µM and 1.03 µM
same,TGI,[18],2.57 µM and 4.4 µM
same,TGI,[19],2.78 µM and 3.5 µM
same,TGI,[20],3.05 µM and 4.01 µM
same,TGI,[21],2.16 µM and 3.2 µM
same,TGI,[22],0.434 µM and 0.847 µM
same,GI50,[23],1.48 µM and 4.4 µM
same,TGI,[23],2.89 µM and 17.4 µM
same,TGI,[24],3.07 µM and 7.28 µM
same,TGI,[25],2.65 µM and 3.06 µM
same,GI50,[26],0.625 µM and 2.24 µM
same,TGI,[26],1.86 µM and 6.79 µM
same,TGI,[27],2.95 µM and 6.14 µM
same,TGI,[28],3.05 µM and 5.73 µM
same,GI50,[29],1.58 µM and 6.13 µM
same,TGI,[29],3.27 µM and 14.3 µM
same,TGI,[30],4.31 µM and 5.01 µM
same,TGI,[31],2.89 µM and 3.2 µM
same,TGI,[32],3.17 µM and 3.33 µM
same,TGI,[33],2.9 µM and 3.87 µM
same,TGI,[34],2.76 µM and 3.3 µM
same,TGI,[35],> 24.9 µM and 5.78 µM
same,TGI,[36],3.26 µM and 10.1 µM
same,GI50,[37],1.77 µM and 12 µM
same,TGI,[37],3.2 µM and 24.9 µM
same,GI50,[38],1.37 µM and 3.01 µM
same,TGI,[39],3.53 µM and 7.5 µM
same,TGI,[40],2.54 µM and 4.52 µM
same,GI50,[41],1.25 µM
same,TGI,[41],2.52 µM and 2.99 µM
same,TGI,[42],3.18 µM and 4.8 µM
same,TGI,[43],3.46 µM and 6.76 µM
same,GI50,[44],1.72 µM and 13.5 µM
same,TGI,[44],3.16 µM and 26.3 µM
same,GI50,[45],1.63 µM and 3.16 µM
same,TGI,[45],3.18 µM and 9.8 µM
same,TGI,[46],3.53 µM and 5.87 µM
same,TGI,[47],2.79 µM and 3.98 µM
same,GI50,[48],2.2 µM and 11.9 µM
same,TGI,[48],3.76 µM and 24.3 µM
same,TGI,[49],3.05 µM and 5.92 µM
same,GI50,[50],1.42 µM and 3.49 µM
same,TGI,[50],2.74 µM and 10.6 µM
same,GI50,[51],1.68 µM and 1.85 µM
same,TGI,[51],3.08 µM and 5.03 µM
same,TGI,[52],3.49 µM and 14.6 µM
same,GI50,[53],1.85 µM and 12.7 µM
same,TGI,[53],3.96 µM and 25.4 µM
same,GI50,[54],1.79 µM and 8.51 µM
same,TGI,[54],3.2 µM and 21.9 µM
same,GI50,[55],1.91 µM
same,TGI,[56],2.97 µM and 6.29 µM
same,GI50,[57],2.24 µM and 14.1 µM
same,TGI,[57],5.04 µM and 27.1 µM
same,GI50,[58],2.48 µM
same,TGI,[59],2.79 µM and 5 µM

# Source: PubChem BioAssay (NCI)
